Assay [1] deals with T1, Replicase polyprotein 1ab (Severe acute respiratory syndrome coronavirus 2, UniProt P0DTD1). Description: SARS-CoV-2 in Calu-3. As to the method:
Calu-3 2B4 cells were adsorbed with MOI 0.1 PFU/cell of SARS-CoV-2 (2019-nCoV/USA-WA1/2020 strain) at 37°C. Plates were manually rocked every 10 min to redistribute the inoculum. After 30 min, virus inoculum was removed, cells were washed with Phosphate buffered saline (PBS) once to remove unbound virus, medium containing NHC or vehicle control (DMSO) was added back onto the cells, and cells were incubated for 72 hours at 37°C.

The target in assay [2] is T1, Replicase polyprotein 1ab. Description: SARS-CoV-2 in Vero E6. On the procedure: Vero E6 cells were plated at 20,000 cells/well in a 96-well plate. 24hr later, medium containing a dose response of NHC was added concurrent with SARS-CoV-2 (2019-nCoV/USA-WA1/2020 strain) at an MOI of 0.05. 48 hours post infection, cell viability was measured by CellTiter Glo assay.

Several values for one entry are separate records, joined by “and”; a condition that tells them apart may be missing. Identical values can stand only once.

As a reminder, the IC50 is the concentration at which inhibition is half-maximal. Read a high IC50 as lower potency.

In the case of `O=c1nc(NO)ccn1[C@@H]1O[C@H](CO)[C@@H](O)[C@H]1O` [NHC], the IC50 in assay [1] was 80 nM and 90 nM; in assay [2], 300 nM.

The values are drawn from BindingDB's records for doi:10.1126/scitranslmed.abb5883 (University of North Carolina at Chapel Hill, 2020).
